In PubChem BioAssay AID2060483 (Molecular Pharmacology Branch, DTP, NCI, 2025):

Test system: K24384-001-R-PDC complex spheroids, viability
Assay: Anticancer human tumor K24384-001-R-PDC patient-derived pancreatic adenocarcinoma cell line growth inhibition [GQUAD]
Conditions: for IC50: curve of first compound; for viability, T/C: stronger effect = lower value
Method in brief: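 Tumor cells were grown as complex spheroids with HUVEC endothelial cells and mesenchymal stem cells as stroma. G-quadruplex stabilizers were combined with targeted agents over half-log dilutions from near the clinical Cmax, or from 10 microM.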

[1] = second compound 0.0316 µM, first compound 0.0316 µM
[2] = second compound 0.0316 µM, first compound 0.1 µM
[3] = second compound 0.0316 µM, first compound 0.316 µM
[4] = second compound 0.0316 µM, first compound 1 µM
[5] = second compound 0.0316 µM, first compound 3.16 µM
[6] = second compound 0.0316 µM, first compound 10 µM
[7] = second compound 0.1 µM, first compound 0.0316 µM
[8] = second compound 0.1 µM, first compound 0.1 µM
[9] = second compound 0.1 µM, first compound 0.316 µM
[10] = second compound 0.1 µM, first compound 1 µM
[11] = second compound 0.1 µM, first compound 3.16 µM
[12] = second compound 0.1 µM, first compound 10 µM
[13] = second compound 0.316 µM, first compound 0.0316 µM
[14] = second compound 0.316 µM, first compound 0.1 µM
[15] = second compound 0.316 µM, first compound 0.316 µM
[16] = second compound 0.316 µM, first compound 1 µM
[17] = second compound 0.316 µM, first compound 3.16 µM
[18] = second compound 0.316 µM, first compound 10 µM
[19] = second compound 1 µM, first compound 0.0316 µM
[20] = second compound 1 µM, first compound 0.1 µM
[21] = second compound 1 µM, first compound 0.316 µM
[22] = second compound 1 µM, first compound 1 µM
[23] = second compound 1 µM, first compound 3.16 µM
[24] = second compound 1 µM, first compound 10 µM
[25] = second compound 3.16 µM, first compound 0.0316 µM
[26] = second compound 3.16 µM, first compound 0.1 µM
[27] = second compound 3.16 µM, first compound 0.316 µM
[28] = second compound 3.16 µM, first compound 1 µM
[29] = second compound 3.16 µM, first compound 3.16 µM
[30] = second compound 3.16 µM, first compound 10 µM
[31] = second compound 10 µM, first compound 0.0316 µM
[32] = second compound 10 µM, first compound 0.1 µM
[33] = second compound 10 µM, first compound 0.316 µM
[34] = second compound 10 µM, first compound 1 µM
[35] = second compound 10 µM, first compound 3.16 µM
[36] = second compound 10 µM, first compound 10 µM
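Further: spheroids exposed to compounds for seven days.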

## CC(C)(O)C1CCC(Nc2ccc3ncc(-c4cccc(C(F)(F)F)c4)n3n2)CC1 (centres undefined) + Cc1cnc(CNC(=O)c2c(=O)c3ccc(N4CCCN(C)CC4)nc3n3c2sc2ccccc23)cn1
Second compound 0.0316 µM
  IC50: 1720 nM
Second compound 0.1 µM
  IC50: 1680 nM
Second compound 0.316 µM
  IC50: 31.6 nM
Second compound 1 µM
  IC50: < 31.6 nM
Second compound 3.16 µM
  IC50: < 31.6 nM
Second compound 10 µM
  IC50: < 31.6 nM
[1]
  viability, T/C: 89%
[2]
  viability, T/C: 85.6%
[3]
  viability, T/C: 90.3%
[4]
  viability, T/C: 69.2%
[5]
  viability, T/C: 26.6%
[6]
  viability, T/C: 30.2%
[7]
  viability, T/C: 55.6%
[8]
  viability, T/C: 75.8%
[9]
  viability, T/C: 72.7%
[10]
  viability, T/C: 76.4%
[11]
  viability, T/C: 22.4%
[12]
  viability, T/C: 28.3%
[13]
  viability, T/C: 42.4%
[14]
  viability, T/C: 49.8%
[15]
  viability, T/C: 46%
[16]
  viability, T/C: 60.9%
[17]
  viability, T/C: 28.8%
[18]
  viability, T/C: 28.1%
[19]
  viability, T/C: 37.1%
[20]
  viability, T/C: 53%
[21]
  viability, T/C: 36.4%
[22]
  viability, T/C: 42.4%
[23]
  viability, T/C: 22.3%
[24]
  viability, T/C: 15.1%
[25]
  viability, T/C: 30.4%
[26]
  viability, T/C: 40.3%
[27]
  viability, T/C: 36.9%
[28]
  viability, T/C: 37.7%
[29]
  viability, T/C: 0.14%
[30]
  viability, T/C: 0.16%
[31]
  viability, T/C: 12.8%
[32]
  viability, T/C: 12.9%
[33]
  viability, T/C: 5.01%
[34]
  viability, T/C: 0.25%
[35]
  viability, T/C: 0.24%
[36]
  viability, T/C: 0.23%

## O=C(NO)c1cnc(N2CCN(S(=O)(=O)c3ccc4ccccc4c3)CC2)nc1 + Cc1cnc(CNC(=O)c2c(=O)c3ccc(N4CCCN(C)CC4)nc3n3c2sc2ccccc23)cn1
Second compound 0.0316 µM
  IC50: 477 nM
Second compound 0.1 µM
  IC50: 325 nM
Second compound 0.316 µM
  IC50: 151 nM
Second compound 1 µM
  IC50: < 31.6 nM
Second compound 3.16 µM
  IC50: < 31.6 nM
Second compound 10 µM
  IC50: < 31.6 nM
[1]
  viability, T/C: 86.3%
[2]
  viability, T/C: 78%
[3]
  viability, T/C: 77.2%
[4]
  viability, T/C: 0.9%
[5]
  viability, T/C: 0.08%
[6]
  viability, T/C: 0.11%
[7]
  viability, T/C: 65.2%
[8]
  viability, T/C: 78.7%
[9]
  viability, T/C: 51.2%
[10]
  viability, T/C: 1.11%
[11]
  viability, T/C: 0.09%
[12]
  viability, T/C: 0.11%
[13]
  viability, T/C: 42.7%
[14]
  viability, T/C: 73%
[15]
  viability, T/C: 35.8%
[16]
  viability, T/C: 0.16%
[17]
  viability, T/C: 0.07%
[18]
  viability, T/C: 0.09%
[19]
  viability, T/C: 38.9%
[20]
  viability, T/C: 43.9%
[21]
  viability, T/C: 31.3%
[22]
  viability, T/C: 0.12%
[23]
  viability, T/C: 0.07%
[24]
  viability, T/C: 0.11%
[25]
  viability, T/C: 33.3%
[26]
  viability, T/C: 34.1%
[27]
  viability, T/C: 16.3%
[28]
  viability, T/C: 0.12%
[29]
  viability, T/C: 0.1%
[30]
  viability, T/C: 0.14%
[31]
  viability, T/C: 0.16%
[32]
  viability, T/C: 0.23%
[33]
  viability, T/C: 0.19%
[34]
  viability, T/C: 0.16%
[35]
  viability, T/C: 0.17%
[36]
  viability, T/C: 0.16%
